ChEMBL document CHEMBL4028853, “Microbiota-Host Transgenomic Metabolism, Bioactive Molecules from the Inside” (J Med Chem, 2018)
pEC50: −log10 of the molar value.

How the values were obtained:
[1] = biological target: T1, Free fatty acid receptor 3 (Homo sapiens, UniProt O14843); assay: Agonist activity at human GPCR41 transfected in HEK293 cells assessed as [35S]GTPgammaS binding by scintillation counting method; assay type: functional, cell-based
T1 sequence (O14843 whole entry): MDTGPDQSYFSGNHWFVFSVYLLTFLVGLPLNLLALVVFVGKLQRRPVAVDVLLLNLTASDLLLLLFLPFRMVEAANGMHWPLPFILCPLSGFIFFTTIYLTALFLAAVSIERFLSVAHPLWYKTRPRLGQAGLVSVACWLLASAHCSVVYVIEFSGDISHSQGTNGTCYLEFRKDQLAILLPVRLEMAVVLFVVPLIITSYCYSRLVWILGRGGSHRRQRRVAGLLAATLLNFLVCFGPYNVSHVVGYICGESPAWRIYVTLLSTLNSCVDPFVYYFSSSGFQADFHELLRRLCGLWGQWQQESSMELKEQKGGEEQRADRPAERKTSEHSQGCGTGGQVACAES

[2] = biological target: T2, Free fatty acid receptor 2 (Homo sapiens, UniProt O15552); assay: Agonist activity at human GPCR43 transfected in HEK293 cells assessed as [35S]GTPgammaS binding by scintillation counting method
T2 sequence (O15552 whole entry): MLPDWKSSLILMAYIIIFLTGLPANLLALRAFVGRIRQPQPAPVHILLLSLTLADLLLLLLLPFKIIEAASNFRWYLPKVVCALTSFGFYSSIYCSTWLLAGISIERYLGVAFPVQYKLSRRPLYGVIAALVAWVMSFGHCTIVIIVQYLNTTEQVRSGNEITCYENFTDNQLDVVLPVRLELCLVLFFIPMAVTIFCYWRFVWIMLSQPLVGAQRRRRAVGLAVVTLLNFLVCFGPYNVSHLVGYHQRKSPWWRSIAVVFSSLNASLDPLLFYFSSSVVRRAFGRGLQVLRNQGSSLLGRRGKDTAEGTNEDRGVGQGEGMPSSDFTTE

Compound | pEC50 [1] | pEC50 [2]
CC(=O)O [ACETIC ACID] | 3.56 to 4.92 | 3.30 to 3.60
CCCC(=O)O [BUTYRIC ACID] | 3.56 to 4.92 | 
CCC(=O)O [PROPIONIC ACID] | 3.56 to 4.92 | 
